ChEMBL document CHEMBL1201862, “PubChem BioAssay data set” (2004)
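Assay format: 96-well plates, 48-hour exposure. GI50: concentration for 50% inhibition of growth.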 The source made the active and inactive calls. No stated cut-off is given here; in the data, active = GI50 up to about 1.1 µM and inactive = higher.

Assays:
Assay in all cases: growth of human tumour cells (NCI), 48 h
OVCAR-4 = system: OVCAR-4
KM-20L2 = system: KM-20L2
CCRF-CEM = system: CCRF-CEM
NCI-H23 = system: NCI-H23
HT-29 = system: HT-29
UACC-257 = system: UACC-257
NCI-H460 = system: NCI-H460
TK-10 = system: TK-10
SN12C = system: SN12C
SF-295 = system: SF-295
SF-268 = system: SF-268
SK-MEL-28 = system: SK-MEL-28
PC-3 = system: PC-3
RXF 393 = system: RXF 393
SNB-19 = system: SNB-19
HOP-92 = system: HOP-92
UO-31 = system: UO-31
CAKI-1 = system: CAKI-1
OVCAR-5 = system: OVCAR-5
MDA-MB-231 = system: MDA-MB-231

Measured: GI50

Oc1ncnc2c1nnn2CCCCCCCCCCCCn1nnc2c(O)ncnc21
inactive: OVCAR-4 > 90.6 µM | KM-20L2 > 100 µM | CCRF-CEM > 100 µM | NCI-H23 5.68 µM | HT-29 > 100 µM | UACC-257 20.3 µM | NCI-H460 51.8 µM | TK-10 24.4 µM | SN12C > 85.5 µM | SF-295 14.5 µM | SF-268 37.7 µM | SK-MEL-28 > 93.1 µM | PC-3 > 100 µM | RXF 393 24.3 µM | SNB-19 20.2 µM | HOP-92 30 µM | UO-31 25.7 µM | CAKI-1 > 100 µM | OVCAR-5 99.1 µM

O=NN(CCCl)C(=O)N[C@H]1CC[C@@H](C(=O)O)CC1
inactive: OVCAR-4 > 100 µM | KM-20L2 > 100 µM | CCRF-CEM 36.6 µM | NCI-H23 97.7 µM | HT-29 > 100 µM | UACC-257 > 100 µM | NCI-H460 49.3 µM | TK-10 > 100 µM | SN12C > 100 µM | SF-295 52.6 µM | SF-268 32.8 µM | SK-MEL-28 > 100 µM | RXF 393 > 100 µM | SNB-19 70 µM | HOP-92 > 76 µM | UO-31 > 100 µM | CAKI-1 92.9 µM | OVCAR-5 > 100 µM

CCCCCCCCCC(=O)Oc1cccc2onc(C)c12
inactive: OVCAR-4 > 100 µM | KM-20L2 > 100 µM | CCRF-CEM > 100 µM | NCI-H23 > 100 µM | HT-29 > 100 µM | UACC-257 > 100 µM | NCI-H460 > 100 µM | TK-10 > 100 µM | SN12C > 100 µM | SF-295 > 100 µM | SF-268 > 100 µM | SK-MEL-28 > 100 µM | RXF 393 > 100 µM | SNB-19 > 100 µM | HOP-92 > 100 µM | UO-31 40.8 µM | CAKI-1 > 100 µM | OVCAR-5 > 100 µM

O=C(O)CCSC(=O)Nc1cccc2ccccc12
inactive: OVCAR-4 > 100 µM | KM-20L2 > 100 µM | CCRF-CEM > 100 µM | NCI-H23 > 100 µM | HT-29 > 100 µM | UACC-257 > 100 µM | NCI-H460 > 100 µM | TK-10 > 100 µM | SN12C > 100 µM | SF-295 > 100 µM | SF-268 > 100 µM | SK-MEL-28 > 100 µM | RXF 393 > 100 µM | SNB-19 > 100 µM | HOP-92 > 100 µM | UO-31 > 100 µM | CAKI-1 > 100 µM | OVCAR-5 > 100 µM

CC1CCC(O)C(C(O)CC2CC(=O)N(C)C(=O)C2)C1 (centres undefined)
inactive: OVCAR-4 > 100 µM | KM-20L2 > 100 µM | CCRF-CEM > 100 µM | NCI-H23 > 100 µM | HT-29 > 100 µM | UACC-257 > 100 µM | NCI-H460 > 100 µM | TK-10 > 100 µM | SN12C > 100 µM | SF-295 > 100 µM | SF-268 > 100 µM | SK-MEL-28 > 100 µM | RXF 393 > 100 µM | SNB-19 > 100 µM | HOP-92 > 100 µM | UO-31 > 100 µM | CAKI-1 > 100 µM | OVCAR-5 > 100 µM

COC1=CC(=O)C2C(C1=O)C(c1ccc(Cl)cc1)[C@@H]2C (some centres undefined)
inactive: OVCAR-4 42.4 µM | KM-20L2 51.1 µM | CCRF-CEM 29.4 µM | NCI-H23 28.6 µM | HT-29 > 100 µM | UACC-257 20.6 µM | NCI-H460 30.1 µM | TK-10 38.7 µM | SF-295 93.1 µM | SF-268 33 µM | SK-MEL-28 28.9 µM | RXF 393 24.1 µM | SNB-19 7.05 µM | HOP-92 24.5 µM | UO-31 19.7 µM | CAKI-1 37.8 µM | OVCAR-5 30.3 µM

CCn1c2c(n(CC)c1=S)-c1c(n(CC)c(=S)n1CC)SSSS2
inactive: OVCAR-4 9.53 µM | KM-20L2 11.6 µM | CCRF-CEM 1.24 µM | NCI-H23 8.75 µM | HT-29 11.7 µM | UACC-257 8.57 µM | NCI-H460 53.7 µM | TK-10 15.2 µM | MDA-MB-231 2.18 µM | SN12C 11.2 µM | SF-295 40.7 µM | SF-268 21.1 µM | SK-MEL-28 7.31 µM | PC-3 > 10 µM | RXF 393 1.36 µM | SNB-19 > 84.1 µM | HOP-92 3.33 µM | UO-31 12.7 µM | CAKI-1 17.9 µM | OVCAR-5 17.3 µM

O=C(c1ccccc1)C(c1ccccc1)C1(O)C(=O)Nc2c(Cl)ccc(Cl)c21 (centres undefined)
inactive: OVCAR-4 3.73 µM | KM-20L2 34.2 µM | CCRF-CEM 12.2 µM | NCI-H23 16.3 µM | HT-29 19.9 µM | UACC-257 15.4 µM | NCI-H460 14.3 µM | TK-10 32.6 µM | SN12C 17.9 µM | SF-295 16.5 µM | SF-268 21.9 µM | SK-MEL-28 18.7 µM | RXF 393 19.5 µM | SNB-19 30.3 µM | HOP-92 19.6 µM | UO-31 20.2 µM | CAKI-1 20.5 µM | OVCAR-5 20.4 µM

CC1=C(C#N)C(N)=C2C(C)=C(C#N)C(N)=C12
inactive: OVCAR-4 > 100 µM | KM-20L2 > 100 µM | CCRF-CEM > 100 µM | NCI-H23 > 100 µM | HT-29 > 100 µM | UACC-257 > 100 µM | NCI-H460 > 100 µM | TK-10 > 100 µM | SN12C > 100 µM | SF-295 > 100 µM | SF-268 > 100 µM | RXF 393 > 100 µM | SNB-19 > 100 µM | HOP-92 > 100 µM | UO-31 > 100 µM | CAKI-1 > 100 µM | OVCAR-5 > 100 µM

CC(C)(C)OC(=O)NC(CO)c1cccc(OCc2ccccc2)c1 (centres undefined)
inactive: OVCAR-4 99.8 µM | KM-20L2 > 100 µM | CCRF-CEM 31.7 µM | NCI-H23 > 65.5 µM | HT-29 > 100 µM | UACC-257 25.9 µM | NCI-H460 35.3 µM | TK-10 > 82.6 µM | SN12C > 100 µM | SF-295 63.4 µM | SF-268 > 100 µM | SK-MEL-28 > 100 µM | RXF 393 > 100 µM | SNB-19 > 81.7 µM | HOP-92 22.1 µM | UO-31 > 100 µM | CAKI-1 > 100 µM | OVCAR-5 > 100 µM

COC(=O)N1[C@H]2Cc3c(OC)c(C)c(OC)c(OC)c3[C@@H]1/C(=C\c1cc(OC)c(OC)c(C)c1OC)N(Cc1ccccc1)C2=O
inactive: OVCAR-4 6.7 µM | KM-20L2 46.2 µM | CCRF-CEM 28.6 µM | NCI-H23 75 µM | HT-29 45.1 µM | UACC-257 23 µM | NCI-H460 13.2 µM | TK-10 33.3 µM | SN12C 40.6 µM | SF-295 39 µM | SF-268 78.2 µM | SK-MEL-28 > 100 µM | RXF 393 > 100 µM | SNB-19 58.9 µM | HOP-92 7.96 µM | UO-31 18.7 µM | CAKI-1 34.6 µM | OVCAR-5 > 100 µM
